Legend:
[1] = tested on: bile ducts formed from the rCLiPs cocultured with human hepatocytes; test: CLF transfer to bile ducts in coculture of rCLiP bile ducts and human hepatocytes; assay type: in vitro ADME; details: human hepatocytes cocultured 3 days; 30 min incubation in HBSS containing CLF; observed immediately, 4 and 24 hours after washing; excitation 470 nm; FIG. 6A
Source text: (§1) It can be confirmed by various methods using labeled compounds that the glandular cavities and the ducts are functionally connected in the cultured tissue produced by the above-mentioned method. For example, a compound obtaining by labeling a compound the behavior of which in the glandular cavities and the ducts is known and which are objects to be confirmed can be used. The functional connection between the glandular cavities and the ducts can be specifically confirmed by confirming whether the labeled secretion or the analogue thereof is incorporated into the glandular cells, and the labeled secretion or the analogue thereof secreted from the glandular cells can be detected from the ducts. […] When CLF is incorporated into the hepatocytes cocultured with the bile ducts, and the fluorescence of CLF is detected from the bile ducts, it can be confirmed that CLF is secreted from the hepatocytes to the biliary canaliculi, and the secreted CLF moves to the bile ducts, namely that the biliary canaliculi and the bile ducts are functionally connected. […]
One day after the inoculation of the human hepatocytes, the medium was exchanged for BIM-2 medium. […] After the incubation, the cells were washed with MSS not containing CLF, and the appearances of the cells immediately, 4 hours, and 24 hours after washing were observed through a phase-contrast microscope and a fluorescence microscope (FIG. 6A). […]

[2] = tested on: bile ducts formed from rCLiPs only; test: CLF added to rCLiP bile ducts only, without primary hepatocytes (negative control, Example 1); assay type: in vitro ADME, rat; details: no hepatocytes, 2 hours after CLF addition, FIG. 3B
Procedure: The appearance 2 hours after the addition of the CLF solution was observed through the phase-contrast microscope and the fluorescence microscope (FIG. 3B).

[3] = tested on: bile ducts formed from rCLiPs only; test: CLF incubation of rCLiP bile ducts only, without human hepatocytes (negative control, Example 2); assay type: in vitro ADME, rat; details: no human hepatocytes, 30 min incubation in HBSS containing CLF, observed immediately, 4 and 24 hours after washing, FIG. 6B
Procedure: After the incubation, the cells were washed with MSS not containing CLF, and the appearances of the cells immediately, 4 hours, and 24 hours after the washing were observed through a phase-contrast microscope and a fluorescence microscope (FIG. 6B).

[4] = tested on: bile ducts formed from the rCLiPs cocultured with rat primary hepatocytes; test: CLF transfer to bile ducts in coculture of rCLiP bile ducts and rat primary hepatocytes; assay type: in vitro ADME; details: rat primary hepatocytes cocultured 3 days; observed 2, 24 and 72 hours after CLF addition; excitation 480 nm; FIG. 3A
Source text: as §1
One day after the inoculation of the primary hepatocytes, the medium was exchanged for the BIM-2 medium. […] The appearances of the cells 2 hours, 24 hours, and 72 hours after the addition of the CLF solution were observed through a phase-contrast microscope and a fluorescence microscope (FIG. 3A). […]

CC(CCC(=O)NC(CCCCNC(=S)Nc1ccc(-c2c3ccc(=O)cc-3oc3cc(O)ccc23)c(C(=O)O)c1)C(=O)O)C1CCC2C3C(O)CC4CC(O)CCC4(C)C3CC(O)C12C (stereo not shown) [CLF, cholyl-lysyl-fluorescein]
CLF fluorescence in bile ducts (secretion to biliary canaliculi and movement to bile ducts) [1]: fluorescence was detected from the bile ducts
CLF fluorescence in bile ducts [2]: fluorescence was not, meanwhile, detected
CLF fluorescence in bile ducts [3]: fluorescence was not, meanwhile, detected
CLF fluorescence in bile ducts (secretion to biliary canaliculi and movement to bile ducts) [4]: fluorescence was detected from the bile ducts

— patent US20220135942A1, “CULTURED TISSUE AND METHOD FOR PRODUCING SAME” (NAGASAKI UNIVERSITY, priority 2019, published 2022)
